Experimental data: a melting point compilation (Tetko et al.; mined from patent text by program, amines drawn as free bases though some values may be those of a salt)

**Q.** Which melting point does the source give for `O=C(O)C(Cc1c[nH]cn1)N1C(=O)c2ccccc2C1=O` (stereo not drawn) here?
**A.** The melting point was 280 to 285 °C.

**Q.** Which melting point does the source give for `O=C(NCCNC(=O)C1CCNC1)OCc1ccccc1` (stereo not drawn) here?
**A.** The melting point was 129 to 131 °C.

**Q.** With `COc1cc2c(cc1O)CCN(C(=O)NCCN(C(C)C)C(C)C)C2c1ccccc1` (stereo not drawn) as the compound, how does the melting point read?
**A.** Its melting point is 91 to 92 °C.

**Q.** For `CC(C)N1CCC(CNc2ccccc2C(=O)Nc2ccc(Cl)cn2)CC1`, which melting point is on record?
**A.** Its melting point is 277 to 280 °C.

**Q.** For `CC(C)(C)c1ccc(-c2ccc3c(-c4ccc(C(C)(C)C)cc4)cc4c5cc(-c6ccc(C(C)(C)C)cc6)ccc5c(-c5ccc(C(C)(C)C)cc5)cc4c3c2)cc1`, which melting point is on record?
**A.** The melting point was 376 °C.

**Q.** For `COc1cc(Cc2cnc(NC(=O)C(C)(C)C)nc2NC(=O)C(C)(C)C)cc(OC)c1OC`, which melting point is on record?
**A.** The melting point was 153 to 154 °C.

**Q.** With `CCn1c(=O)nc(C(C)C)c2cc3c(cc21)OCO3` as the compound, how does the melting point read?
**A.** Its melting point is 180 to 185 °C.

**Q.** For `Nc1ccc(CCCn2cnnc2)cc1`, which melting point is on record?
**A.** The melting point was 150 to 153 °C.

**Q.** Which melting point does the source give for `CN(C)C(=O)c1cnn(-c2c(Cl)cc(Cl)cc2Cl)c1N` here?
**A.** Its melting point is 226 to 228 °C.

**Q.** Which melting point does the source give for `COc1ccc(C2=NN(C3CCCCCC3)C(=O)[C@H]3CC=CC[C@@H]23)c2c1OC(C)(C)C2` (relative stereo) here?
**A.** The melting point was 114 to 115 °C.

**Q.** For `O=C1NCCN1c1ccc(S(=O)(=O)Nc2ccc(Cl)cc2)cc1`, which melting point is on record?
**A.** Its melting point is 234 to 236 °C.

**Q.** For `O=C(c1ccccc1)c1c(O)c2c(C(=O)O)cccc2[nH]c1=O`, which melting point is on record?
**A.** Its melting point is over 300 °C.

**Q.** Which melting point does the source give for `O=C(NCN1CCOCC1)c1cn(-c2ccc(F)cc2)c2cc(-c3ccncc3)ccc2c1=O` here?
**A.** Its melting point is 258 to 260 °C.

**Q.** For `COc1ccc2c(c1)S(=O)(=O)C(C(=O)Nc1ccc(F)cc1)C(=O)N2C` (stereo not drawn), which melting point is on record?
**A.** The melting point was 202 to 204 °C.

**Q.** Which melting point does the source give for `COc1cc(C=C2NC(=O)NC2=O)cc(OC)c1` here?
**A.** The melting point was 285 to 287 °C.

**Q.** For `CC(=O)C1CCC2C3CCC4CC(O)C(N5CC(C)(C)OC(C)(C)C5)CC4(C)C3C(=O)CC12C` (stereo not drawn), which melting point is on record?
**A.** The melting point was 212 to 215 °C.

**Q.** With `C=C1c2ccccc2C2(CCN(C)CC2)c2cccc(O)c21` as the compound, how does the melting point read?
**A.** The melting point was 117 to 120 °C.

**Q.** For `CCN1C(=O)C(C)(C)CCc2c1ccc(Nc1ncc(Cl)c(Nc3ccccc3C(=O)NC)n1)c2OC`, which melting point is on record?
**A.** The melting point was 226 to 228 °C.

**Q.** With `CS(=O)c1c(C#N)nn(-c2c(Cl)cc(C(F)(F)F)cc2Cl)c1NCc1cnccn1` (stereo not drawn) as the compound, how does the melting point read?
**A.** The melting point was 198 °C.

**Q.** For `CCOc1ccc(CC(CO)NC(=O)c2ccnc(Br)c2)cc1OCC` (stereo not drawn), which melting point is on record?
**A.** The melting point was 97 to 99 °C.

**Q.** With `C[C@@H]1O[C@](C#CC2CC2)(C(F)(F)F)c2cc(Cl)ccc2NC1=O` as the compound, how does the melting point read?
**A.** Its melting point is 145 to 146 °C.

**Q.** With `O=C(NCCCN1C(=O)C2(COc3cc4c(cc32)CCO4)c2ccccc21)c1ccccc1OC(F)(F)F` (stereo not drawn) as the compound, how does the melting point read?
**A.** Its melting point is 65 to 70 °C.

**Q.** With `CN(C)C=Nc1sc(C=O)c(Cl)c1C#N` as the compound, how does the melting point read?
**A.** The melting point was 186 °C.

**Q.** For `CCCc1c(N)c(N)cc2c(=O)cc(C(=O)OC)oc12`, which melting point is on record?
**A.** Its melting point is 221 to 222 °C.

**Q.** Which melting point does the source give for `O=C1NCC(CCc2ccccc2Br)O1` (stereo not drawn) here?
**A.** Its melting point is 93.5 to 94.5 °C.

**Q.** With `CC(=O)NC(CCc1ccc(C(O)CCCCCCc2ccccc2)cc1)(CO[Si](C)(C)C(C)(C)C)CO[Si](C)(C)C(C)(C)C` (stereo not drawn) as the compound, how does the melting point read?
**A.** The melting point was 121 to 122 °C.

**Q.** Which melting point does the source give for `COc1cc(OCCCN(C)Cc2ccc(OC)c(OC)c2)ccc1NC(=O)c1cccc2c(=O)c3cccc(F)c3[nH]c12` here?
**A.** The melting point was 108 °C.

**Q.** For `CCCc1c(CSc2ncccc2OCC(=O)O)ccc(C(C)=O)c1O`, which melting point is on record?
**A.** The melting point was 157 °C.

**Q.** For `NC(=O)N(O)CCNC(=O)c1ccc(Oc2ccc(Cl)cc2)o1`, which melting point is on record?
**A.** Its melting point is 173 to 175 °C.

**Q.** With `C=CCONC(CCC)=C1C(=O)OC(CCC)=C(Br)C1=O` as the compound, how does the melting point read?
**A.** The melting point was 50 to 51 °C.

**Q.** Which melting point does the source give for `CCOC(=O)[C@H](Cc1ccc(O)cc1)NC(=O)c1c(F)cccc1Cl` here?
**A.** Its melting point is 144 to 145 °C.

**Q.** For `Oc1ccc2c(c1)SCCc1c-2n(CCCCCN2CCCCC2)c2ccc(O)cc12`, which melting point is on record?
**A.** The melting point was 195 to 196 °C.

**Q.** Which melting point does the source give for `CC#CCc1c(C)nc2cc(C)nn2c1N` here?
**A.** Its melting point is 215 to 219 °C.

**Q.** With `CN(C)C1(c2ccccc2)CCC(c2[nH]c3ccccc3c2Cc2ccccc2)CC1` (stereo not drawn) as the compound, how does the melting point read?
**A.** Its melting point is 194 to 199 °C.

**Q.** Which melting point does the source give for `O=C(c1ccc(F)cc1)c1ccc2n1CCC2C(=O)O` (stereo not drawn) here?
**A.** The melting point was 165 °C.

**Q.** With `COc1cc(N)c(Cl)cc1C(=O)NCC1CCN(CCCCCC(=O)c2ccc(C)cc2C)CC1` as the compound, how does the melting point read?
**A.** The melting point was 106 to 110 °C.

**Q.** With `Cc1cccc(C)c1N1CC(=N)N(c2c(C)cccc2C)C1C(=O)c1ccc(Cl)cc1` (stereo not drawn) as the compound, how does the melting point read?
**A.** Its melting point is 155 to 156 °C.

**Q.** Which melting point does the source give for `C[C@H](NC(=O)Cc1ccccc1F)C(=O)N[C@@H]1C(=O)Nc2ccccc2O[C@@H]1c1ccccc1` here?
**A.** The melting point was 115 to 135 °C.

**Q.** Which melting point does the source give for `Cc1ccc(NC(=O)C(C)(C)C)c(-c2cccc(-c3cc(C)ccc3NC(=O)C(C)(C)C)n2)c1` here?
**A.** The melting point was 181 to 184 °C.

**Q.** Which melting point does the source give for `CN(C)S(=O)(=O)c1cc(Cl)c(Cl)c(Cl)c1SCSC#N` here?
**A.** The melting point was 155 to 156 °C.

**Q.** With `COc1ccccc1-n1c(=O)[nH]c2c(C(N)=O)nc(-c3ccc4nc[nH]c4c3)nc21` as the compound, how does the melting point read?
**A.** Its melting point is 306 °C.

**Q.** With `O=[N+]([O-])c1ccc(Cl)cc1Nc1ccccc1Cl` as the compound, how does the melting point read?
**A.** The melting point was 97 °C.

**Q.** For `CCOC(=O)c1c(N2CCN(C(=O)c3cccs3)CC2)c2cnccc2[nH]c1=O`, which melting point is on record?
**A.** The melting point was 231 °C.

**Q.** For `O=C1CN(CCCOc2ccc(NC(=O)c3cc(F)cc(N4CCCCC4)c3)c3ccccc23)CCN1`, which melting point is on record?
**A.** Its melting point is 90 to 92 °C.

**Q.** For `O=C(O)c1c(O)cccc1OCCC(c1ccccc1)(c1ccccc1)c1ccccc1`, which melting point is on record?
**A.** Its melting point is 167 to 168 °C.

**Q.** With `Cc1cccc(C(=O)O)c1Nc1ccccc1C(=O)O` as the compound, how does the melting point read?
**A.** Its melting point is 258 to 259 °C.

**Q.** For `COc1ccccc1Oc1c(NS(=O)(=O)c2cc(Cl)sc2Cl)nc(-c2ncccn2)nc1OCCOC(=O)Nc1ccccn1`, which melting point is on record?
**A.** The melting point was 194 to 197 °C.

**Q.** Which melting point does the source give for `O=C(c1ccc(F)c(F)c1)N1CCC[C@H](c2nc(-c3cscn3)no2)C1` here?
**A.** The melting point was 107 to 109 °C.
